≈ marks a conversion by molar mass, not a printed value. Calls of active or inactive are those of the source. The rule behind the calls is not given here.
How the values were obtained:
[1] = target: T1, Quinolone resistance protein NorA (Staphylococcus aureus) (UniProt P0A0J7); experiment: Inhibition of NorA in Staphylococcus aureus SA-1199B assessed as potentiation of ciprofloxacin -mediated antibacterial activity by measuring maximal reduction in ciprofloxacin MIC
T1 sequence (whole entry): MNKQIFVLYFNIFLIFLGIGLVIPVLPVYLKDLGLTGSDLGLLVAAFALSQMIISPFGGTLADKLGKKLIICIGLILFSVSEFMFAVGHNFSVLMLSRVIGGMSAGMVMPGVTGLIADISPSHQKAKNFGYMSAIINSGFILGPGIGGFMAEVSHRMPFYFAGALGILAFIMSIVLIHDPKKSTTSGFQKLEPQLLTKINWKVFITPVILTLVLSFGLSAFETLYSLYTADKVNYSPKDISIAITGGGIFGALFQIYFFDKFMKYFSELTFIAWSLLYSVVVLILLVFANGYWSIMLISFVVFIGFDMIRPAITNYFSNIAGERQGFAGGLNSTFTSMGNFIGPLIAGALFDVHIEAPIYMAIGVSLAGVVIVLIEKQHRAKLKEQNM

[2] = target: T1, Quinolone resistance protein NorA (Staphylococcus aureus); experiment: Inhibition of NorA in staphylococcus aureus SA-1199B assessed as increase in fluorescence emission of ethidium bromide accumulation for 25 mins by fluorometric assays
[3] = target: T1, Quinolone resistance protein NorA (Staphylococcus aureus); experiment: Inhibition of NorA in staphylococcus aureus SA-1199B assessed as ethidium bromide accumulation
[4] = target: T1, Quinolone resistance protein NorA (Staphylococcus aureus); experiment: Inhibition of NorA in Staphylococcus aureus SA-1199B assessed as potentiation of norfloxacin-mediated antibacterial activity by measuring maximal reduction in norfloxacin MIC
[5] = system: Staphylococcus aureus; experiment: Antibacterial activity against Staphylococcus aureus SA-1199B; type: functional
[6] = system: Staphylococcus aureus; experiment: Antibacterial activity against Staphylococcus aureus ATCC 25923; type: functional
[7] = Toxicity in brine shrimp assessed as mortality at 1 mg/ml; settings: artemia salina, read-out: Activity
[8] = target: T1, Quinolone resistance protein NorA (Staphylococcus aureus); experiment: Inhibition of NorA in Staphylococcus aureus SA-1199B assessed as potentiation of norfloxacin-mediated antibacterial activity by measuring fold reduction in norfloxacin MIC
[9] = target: T1, Quinolone resistance protein NorA (Staphylococcus aureus); experiment: Inhibition of NorA in Staphylococcus aureus SA-1199B assessed as potentiation of norfloxacin-mediated antibacterial activity by measuring fold reduction in ciprofloxacin MIC

In the case of O=C1NC(=O)/C(=C/c2ccc(F)cc2)N1, the MEC [1] is reported as 64 µg/mL, the inhibition [2] is reported as “Active” and the inhibition [3] is reported as “Active”. For the same molecule, the MEC [4] was 64 µg/mL, the MIC [5] was 512 µg/mL (≈ 2480 µM) and the MIC [6] was 512 µg/mL (≈ 2480 µM). The mortality at 1 mg/ml [7] was 47%, the fold change (FC) [8] was 6.4 and the fold change (FC) [9] was 3.2.

For O=C1NC(=S)N/C1=C\c1ccccn1, the MIC [5] was ≥ 1020 µg/mL.

With CN(C)CCCN1c2ccccc2Sc2ccc(Cl)cc21 the inhibition [2] was “Active”.

With O=C1NC(=S)N/C1=C\c1cccs1 the MIC [5] was ≥ 1020 µg/mL.

For O=C1NC(=S)N/C1=C\c1ccc(F)cc1, the MEC [1] was 64 µg/mL, the inhibition [2] was “Active” and the inhibition [3] was “Active”. For the same molecule, the MEC [4] was 64 µg/mL, the MIC [5] was 512 µg/mL (≈ 2300 µM) and the MIC [6] was 512 µg/mL (≈ 2300 µM). For the same molecule, the mortality at 1 mg/ml [7] was 90%, the fold change (FC) [8] was 4 and the fold change (FC) [9] was 3.2.

For O=C1NC(=O)/C(=C/c2cccs2)N1, the MIC [5] was ≥ 1020 µg/mL.

In the case of CCn1cc(C(=O)O)c(=O)c2cc(F)c(N3CCNCC3)cc21 [NORFLOXACIN], the MIC [5] is reported as 64 µg/mL (≈ 200 µM).

For O=C1NC(=O)/C(=C/c2ccccn2)N1, the MIC [5] was ≥ 1020 µg/mL.
